Test results as given in patent US12043599B2, “Herbicidal compounds” (SYNGENTA PARTICIPATIONS AG, priority 2018, dated 2024).

What was measured:
Type in all cases: in vivo
Settings in all cases: 250 g/h, evaluated after 13 days
[1] = tested on: Alopecurus myosuroides (ALOMY); experiment: Pre-emergence herbicidal glasshouse test, percentage damage
In short: (§1)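 Damage assessed 13 days after treatment and expressed as a five-point score (5=80-100%; 4=60-79%; 3=40-59%; 2=20-39%; 1=0-19%). Compound applied at 250 g/h as an acetone/water/0.5% Tween 20 spray, pre-emergence (day 1 after sowing) or post-emergence (day 8). Plants kept at 24/16° C., 14 h light, 65% humidity.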

Avena fatua (AVEFA) [2] = experiment: as above
In short: as §1

[3] = tested on: Echinochloa crus-galli (ECHCG); experiment: as above
In short: as §1

Lolium perenne (LOLPE) [4] = experiment: as above
In short: as §1

Setaria faberi (SETFA) [5] = experiment: as above
In short: as §1

Setaria faberi (SETFA) [6] = experiment: Post-emergence herbicidal glasshouse test, percentage damage
In short: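 Percentage damage was scored 13 days after treatment on a five-point scale (1=0-19% to 5=80-100%). Treatments were post-emergence sprays on 8-day-old wheat, barley and SETFA plants in a glasshouse (24/16 °C day/night, 14 h light, 65% humidity), using acetone/water 50:50 with 0.5% Tween 20 at the stated rates. Wheat additionally received cloquintocet-mexyl safener at 50 g/ha.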

[7] = tested on: Alopecurus myosuroides (ALOMY); experiment: as above
In short: as §1

Avena fatua (AVEFA) [8] = experiment: as above
In short: as §1

[9] = tested on: Echinochloa crus-galli (ECHCG); experiment: as above
In short: as §1

Lolium perenne (LOLPE) [10] = experiment: as above
In short: as §1

Compound	ALOMY PRE percentage damage (five point scale) [1]	AVEFA PRE percentage damage (five point scale) (Avena fatua (AVEFA) [2])	ECHCG PRE percentage damage (five point scale) [3]	LOLPE PRE percentage damage (five point scale) (Lolium perenne (LOLPE) [4])	SETFA PRE percentage damage (five point scale) (Setaria faberi (SETFA) [5])	SETFA POST percentage damage (five point scale) (Setaria faberi (SETFA) [6])	ALOMY POST percentage damage (five point scale) [7]	AVEFA POST percentage damage (five point scale) (Avena fatua (AVEFA) [8])	ECHCG POST percentage damage (five point scale) [9]	LOLPE POST percentage damage (five point scale) (Lolium perenne (LOLPE) [10])
CC#Cc1cc(C)c(C2C(=O)CC3(CCN(C(=O)CCCOC)CC3)CC2=O)c(C)c1 [Compound A193]	5 (5=80-100%)	5 (5=80-100%)	5 (5=80-100%)	5 (5=80-100%)	5 (5=80-100%)	5 (5=80-100%)	5 (5=80-100%)	5 (5=80-100%)	5 (5=80-100%)	5 (5=80-100%)
CC#Cc1cc(C)c(C2=C(OC(C)=O)CC3(CCN(C(N)=O)CC3)CC2=O)c(C)c1 [Compound P9]	5 (5=80-100%)	4 (4=60-79%)	5 (5=80-100%)	5 (5=80-100%)	5 (5=80-100%)	5 (5=80-100%)	5 (5=80-100%)	5 (5=80-100%)	5 (5=80-100%)	5 (5=80-100%)
CC#Cc1cc(C)c(C2C(=O)CC3(CCN(C(=O)N(C)OC)CC3)CC2=O)c(C)c1 [Compound A9]	5 (5=80-100%)	5 (5=80-100%)	5 (5=80-100%)	5 (5=80-100%)	5 (5=80-100%)	5 (5=80-100%)	5 (5=80-100%)	5 (5=80-100%)	5 (5=80-100%)	5 (5=80-100%)
CC#Cc1cc(C)c(C2C(=O)CC3(CCN(C(=O)COCCC)CC3)CC2=O)c(C)c1 [Compound A186]	5 (5=80-100%)	5 (5=80-100%)	5 (5=80-100%)	5 (5=80-100%)	5 (5=80-100%)	5 (5=80-100%)	5 (5=80-100%)	5 (5=80-100%)	5 (5=80-100%)	5 (5=80-100%)
CC#Cc1cc(C)c(C2C(=O)CC3(CCN(C(=O)Cc4cccnc4)CC3)CC2=O)c(C)c1 [Compound A99]	3 (3=40-59%)	3 (3=40-59%)	5 (5=80-100%)	4 (4=60-79%)	4 (4=60-79%)	5 (5=80-100%)	4 (4=60-79%)	5 (5=80-100%)	5 (5=80-100%)	4 (4=60-79%)
CC#Cc1cc(C)c(C2C(=O)CC3(CCN(C(=O)N4CCOCC4)CC3)CC2=O)c(C)c1 [Compound A13]	5 (5=80-100%)	5 (5=80-100%)	5 (5=80-100%)	5 (5=80-100%)	5 (5=80-100%)	5 (5=80-100%)	5 (5=80-100%)	5 (5=80-100%)	5 (5=80-100%)	5 (5=80-100%)
CC#Cc1cc(C)c(C2C(=O)CC3(CCN(C(=O)c4cnccc4C#N)CC3)CC2=O)c(C)c1 [Compound A192]	3 (3=40-59%)	3 (3=40-59%)	5 (5=80-100%)	5 (5=80-100%)	5 (5=80-100%)	5 (5=80-100%)	5 (5=80-100%)	5 (5=80-100%)	5 (5=80-100%)	5 (5=80-100%)
CC#Cc1cc(C)c(C2=C(OC(=O)OC)CC3(CCN(S(=O)(=O)C(F)(F)F)CC3)CC2=O)c(C)c1 [Compound P11]	5 (5=80-100%)	3 (3=40-59%)	5 (5=80-100%)	5 (5=80-100%)	5 (5=80-100%)	5 (5=80-100%)	5 (5=80-100%)	5 (5=80-100%)	5 (5=80-100%)	4 (4=60-79%)
CC#Cc1cc(C)c(C2C(=O)CC3(CCN(C(=O)COC(F)(F)F)CC3)CC2=O)c(C)c1 [Compound A199]	5 (5=80-100%)	5 (5=80-100%)	5 (5=80-100%)	5 (5=80-100%)	5 (5=80-100%)	5 (5=80-100%)	5 (5=80-100%)	5 (5=80-100%)	5 (5=80-100%)	5 (5=80-100%)
CC#Cc1cc(C)c(C2C(=O)CC3(CCN(C(=O)NC(C)(C)CC)CC3)CC2=O)c(C)c1 [Compound A169]	5 (5=80-100%)	5 (5=80-100%)	5 (5=80-100%)	5 (5=80-100%)	5 (5=80-100%)	5 (5=80-100%)	5 (5=80-100%)	5 (5=80-100%)	5 (5=80-100%)	5 (5=80-100%)
CC#Cc1cc(C)c(C2C(=O)CC3(CCN(C(=O)Nc4cccnc4)CC3)CC2=O)c(C)c1 [Compound A22]	5 (5=80-100%)	5 (5=80-100%)	5 (5=80-100%)	5 (5=80-100%)	5 (5=80-100%)	5 (5=80-100%)	5 (5=80-100%)	5 (5=80-100%)	5 (5=80-100%)	5 (5=80-100%)
